The source of these data is patent US5656613A, “Treatment of hyperandrogenic conditions” (Merck & Co., Inc., priority 1995, dated 1997).

“Also recorded” adds a separate entry of the source. Read-outs that look alike come from different tables or passages of the source.

The target of assay [1] is T1, human prostate (type 2) isozyme of 5α-reductase (Homo sapiens, UniProt P31213).
T1 sequence (P31213 1-254): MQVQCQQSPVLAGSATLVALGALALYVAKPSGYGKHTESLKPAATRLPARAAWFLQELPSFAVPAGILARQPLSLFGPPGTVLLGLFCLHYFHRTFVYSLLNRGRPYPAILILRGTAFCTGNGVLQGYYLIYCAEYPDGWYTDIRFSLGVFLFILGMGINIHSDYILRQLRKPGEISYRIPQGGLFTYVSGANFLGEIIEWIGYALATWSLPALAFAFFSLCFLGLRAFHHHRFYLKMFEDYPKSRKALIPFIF
In words: Dissociation of enzyme-[^3 H]finasteride complex (release of radioactivity), type 2. Type of assay: binding. The arrangement: host or cells: native human prostate tissue or recombinant from a baculovirus expression system; considered interchangeable. Particulars: 21.9 nM enzyme, 9.33 nM [^3 H]finasteride, 466 μM NADPH, pH 7.2, 37° C. On the procedure:
(§1) The concentrations of bound and free radioactivity were determined by ultrafiltration on 10,000 Da cutoff membranes (AMICON, Centricon-10), which were centrifuged several hours at 4° C.
(§2) Nonspecific binding was assessed by reversing the order of addition, first blocking the […] with excess unlabeled inhibitor before addition of […].

The target of assay [2] is T2, human skin (type 1) isozyme of 5α-reductase (Homo sapiens, UniProt P18405).
T2 construct: made in house
T2 sequence (P18405 1-259): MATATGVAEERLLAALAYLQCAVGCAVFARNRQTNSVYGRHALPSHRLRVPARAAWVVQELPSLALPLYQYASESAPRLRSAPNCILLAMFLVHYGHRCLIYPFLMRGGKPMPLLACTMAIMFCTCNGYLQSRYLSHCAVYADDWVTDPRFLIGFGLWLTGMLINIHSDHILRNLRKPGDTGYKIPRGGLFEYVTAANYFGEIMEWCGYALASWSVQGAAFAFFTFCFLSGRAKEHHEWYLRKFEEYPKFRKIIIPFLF
Particulars: cited from earlier work.

Assay [3] deals with T1, human prostate (type 2) isozyme of 5α-reductase.
Experimental: The rate constant for dissociation of the enzyme-inhibitor complex was determined from the rate of release of radioactivity from enzyme-[^3 H]finasteride complex in the presence of 100-fold excess unlabeled finasteride. The enzyme-[^3 H]finasteride complex was formed in a solution containing excess enzyme: 21.9 nM enzyme (6 mg protein, ~0.04% pure, taken from the relatively homogeneous 100,000×g supernatant fraction). […] After 2 hours, exchange was initiated by making the solution 933 nM in unlabeled finasteride (including 1% ethanol). The solution was divided into aliquots (100 μL) which were incubated at 37° C.; each day a sample was removed and frozen away at -80° C. for future determination of bound and free inhibitor.
To obtain sufficient transformed inhibitor for mass spectral analysis, a preparation of baculovirus-expressed enzyme was employed that consisted of all protein sedimenting between 1,000 to 100,000×g. […] The solution was then dialyzed overnight at 4° C. in 14,000 Da cutoff dialysis tubing (SPECTRAPOR 2) against 2 changes of 4L water containing 1 mM MOPS and 1 mM EDTA at pH 7.20.
Assay [4] concerns the target T2, human skin (type 1) isozyme of 5α-reductase. Kind of assay: Inhibition of human skin (type 1) 5α-reductase by finasteride. Type of assay: biochemical. Particulars: type 1, from ratio of rate constants; read-out: steady-state Ki *. An excerpt:
(§3) When tissue extracts were the source of enzyme, the quenched reactions were clarified by centrifugation at 10,000×g before analysis.
(§4) The human isozymes were employed exclusively in this research. The native isozymes were from scalp (type 1 ) or prostate (type 2) tissues, and the recombinant forms were produced by a baculovirus expression system. Except where specified, all data refer to the prostate (type 2) isozyme, the primary target of finasteride. All of the experiments described in this application were also conducted with the recombinant type 1 isozyme, either in parallel or for confirmation.
(§5) The data for slow-binding inhibition were analyzed as reviewed by Morrison et al., Adv. Enzymol. 61:201-301 (1988). The kinetic model is shown in the Description of the Invention. The time courses were fit to an integrated first-order rate equation (Equation 1), where A is product concentration, .nu.o is the initial velocity, .nu.s is the infinite-time velocity, and kobs is the first-order rate constant for progression of the enzyme between the two equilibrium states.

Assay [5] deals with T1, human prostate (type 2) isozyme of 5α-reductase. Kind of assay: Release of radiolabel on denaturation of enzyme-[^3 H]finasteride complex. Type of assay: binding. Further details: host or cells: native human prostate tissue or recombinant from a baculovirus expression system; considered interchangeable. As for the experimental part:
as §1, §2

The target is the same in assay [6]. In words: Slow-binding / fixed-time inhibition of human prostate (type 2) 5α-reductase by finasteride. Type of assay: biochemical. Further details: host or cells: native human prostate tissue or recombinant from a baculovirus expression system; considered interchangeable. On the procedure: as §3
Where indicated, measurements were also conducted under conditions that have more traditionally been employed for this enzyme at pH 5.50 and 37° C.
The enzyme was either used directly as a crude cell homogenate, or isolated as microsomal suspensions by differential centrifugation. In general, the tissue or cell pellet was combined with an equal volume of buffer and dispersed using a high shear force homogenizer (POLYTRON, high speed) for several minutes in an ice bath below 10° C. […] Saturating levels of cofactor were usually included to improve enzyme stability.
as §4, §5
vo =kcat (E)(S)/(Km (1+([…]))+S) Equation 2
The rate constant for conversion of the weak complex to the high-affinity one, k2, was obtained by nonlinear regression to Equation 3, which also is a function of Ki.
[(I/Ki)/(1+(S/Km)+(I/Ki)]Equation 3

Assay [7] has the same target. The arrangement: host or cells: native human prostate tissue or recombinant from a baculovirus expression system; considered interchangeable. Particulars: cited from earlier work.
Another assay has as its system dihydrotestosterone. Particulars: clinical trials, cited from earlier work.
For assay [8], the target named is T3, human prostate (type 2) 5α-reductase (Homo sapiens, UniProt P31213).
T3 sequence (P31213 1-254): T1 sequence (P31213 1-254)
In words: Steady-state enzyme kinetics of substrates. Type of assay: biochemical. The arrangement: native prostate enzyme considered interchangeable. To be noted: pH 7.2, 37° C.
Excerpt: The model applies in many aspects to both slow-binding, reversible inhibitors and to mechanism-based, irreversible ones.
as §3

Assay [9] has as its target T3, human prostate (type 2) 5α-reductase. Particulars: read-out: Km for testosterone; native human prostate enzyme, neutral pH; Faller et al.; cited from earlier work.

Turning to `CC(C)(C)NC(=O)[C@H]1CC[C@H]2[C@@H]3CC[C@H]4NC(=O)C=C[C@]4(C)[C@H]3CC[C@]12C` [Compound 1, 17β-(N-tert-butylcarbamoyl)-3-oxo-4-aza-5α-androst-1-ene-3-one], the “inhibition on complex formation” value in assay [1] is reported as 36%; in assay [3] (1.39 μM enzyme, 1.14 μM finasteride, 573 μM NADPH, pH 7.20, 45 min), 73%. In assay [2] (skin (type 1) isozyme, Tian et al.), the “second-order rate constant for formation of complex” value is 4000 M⁻¹ s⁻¹. For the same compound, the Ki was 360 nM in assay [2] (skin (type 1) isozyme, Tian et al., read-out: Ki of preliminary weak complex); less than 0.2 nM in assay [4]; less than 0.1 nM in assay [6] (type 2 enzyme, read-out: overall equilibrium constant Ki *); more than 150 nM in assay [7] (Faller et al., native human prostate enzyme, pH 7.0, read-out: dissociation constant Ki); 26 nM in assay [7] (human prostate enzyme, as first perceived in fixed-time assays, read-out: Ki (simple, rapidly-reversible inhibitor)); less than 1 nM in [7] (read-out: Ki of essentially irreversible enzyme-inhibitor complex, Faller et al., human prostate isozyme). Further, the “inhibition of type 1 isozyme” value in assay [2] (skin, listed as finasteride) is on record as “not a significant inhibitor of human skin (type 1 ) isozyme at doses employed in the treatment of BPH; also recorded: relatively insensitive to finasteride”. Moreover, the “[^3 H]-1,2-dihydrofinasteride as share of free tritium released from the [^3 H]finasteride-enzyme complex” value in assay [3] (off-rate experiment, one month) is more than 95%. In assay [3] (off-rate experiment, one month), the “untransformed [^3 H]finasteride released” value is “no untransformed [^3 H]finasteride was detected”. For the same compound, the “radiolabel released on denaturation” value in assay [5] (7M guanidine hydrochloride) is more than 99%; in [5] (45% aqueous ethanol), more than 77%; in assay [5] (boiling water bath, 2 minutes), more than 96%. Moreover, in assay [6] (37° C., assuming Ki * <100 pM), the “halflife for dissociation (or turnover) of enzyme-inhibitor complex, predicted from association rate” value is more than 6 h. In addition, the “halflife of conversion to high-affinity complex” value in [6] (assuming minimum Ki) is less than 30 s. In addition, in [6] (lowest practical concentrations of finasteride (2 nM)), the “suppression of activity at infinite time” value is reported as “nearly complete suppression of the activity”. Also, the “Ki for the preliminary complex (theoretical line, minimum value)” value in assay [6] (type 2) is 100 nM. Also, the “mode of inhibition” value in assay [7] (fixed-time assays, previously shown) is listed as “competitive with testosterone”. Also, the “inhibition of type 2 isozyme” value in assay [7] (prostate) was “potently inhibited by finasteride”. Besides, the “time for dihydrotestosterone to return to basal levels after withdrawal” value in the assay on dihydrotestosterone (Stoner, Gormley et al.) was “two”. Further, the “reduction of dihydrotestosterone levels” value in the assay with dihydrotestosterone (circulating concentrations comparable to Ki) is recorded as “reduced levels of dihydrotestosterone to values approaching those found in individuals genetically deficient in the prostate isozyme”.
As to `C[C@]12CC[C@H]3[C@@H](CCC4=CC(=O)CC[C@@]43C)[C@@H]1CC[C@@H]2O` [testosterone], the kcat/Km in assay [8] is recorded as 2.99±0.32×10^6 M^-1 s^-1. In assay [8] (by titration with finasteride), this compound registered a turnover number kcat of 0.075 ± 0.006 s⁻¹. Also, the Michaelis-Menten constant (Km) in assay [9] was 0.02 ± 0.003 µM.
